According to PubChem BioAssay AID1259321 (Sanford-Burnham Center for Chemical Genomics, 2017):
Calls of active or inactive are those of the source.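 How the source made its calls: active means half-maximal concentration for changing protein binding to DNA, from the fitted dose curve, below 10 micromolar; inactive means the rest.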

Each compound was assayed against Nuclear receptor subfamily 1 group D member 1 (Homo sapiens) (UniProt P20393) (assay: modulators of Rev-erb alpha DNA binding, dose response, biochemical, FITC-DNA, fluorescence polarization (AID 1259321)).
Nuclear receptor subfamily 1 group D member 1 (Homo sapiens), sequence (P20393 whole entry, looked up): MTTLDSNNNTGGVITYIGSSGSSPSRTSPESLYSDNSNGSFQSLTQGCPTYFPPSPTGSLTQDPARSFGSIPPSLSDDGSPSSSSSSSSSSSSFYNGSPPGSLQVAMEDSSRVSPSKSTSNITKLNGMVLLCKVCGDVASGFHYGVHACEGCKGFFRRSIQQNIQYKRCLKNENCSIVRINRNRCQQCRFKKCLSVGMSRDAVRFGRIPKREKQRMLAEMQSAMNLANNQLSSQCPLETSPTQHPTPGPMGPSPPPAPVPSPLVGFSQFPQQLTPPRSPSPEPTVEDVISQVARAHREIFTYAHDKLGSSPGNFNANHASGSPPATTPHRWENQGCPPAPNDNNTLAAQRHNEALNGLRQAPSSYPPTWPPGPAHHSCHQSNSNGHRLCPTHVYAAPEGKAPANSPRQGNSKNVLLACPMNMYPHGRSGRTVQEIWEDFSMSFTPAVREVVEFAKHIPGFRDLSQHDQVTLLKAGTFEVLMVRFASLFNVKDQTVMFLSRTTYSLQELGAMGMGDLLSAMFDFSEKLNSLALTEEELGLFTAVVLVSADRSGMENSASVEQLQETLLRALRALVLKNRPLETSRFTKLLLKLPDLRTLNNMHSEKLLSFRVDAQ
With `CCN(CC)c1ccc(-c2c(C#N)c(N)nc(OC)c2C#N)cc1` the IC50 was > 40 µM (inactive).
For `CCOC(=O)/C(=C\C=C1/Sc2cc(OCC)c(OCC)cc2N1CC)C(C)=O`, the IC50 was 5.55 µM.
For `COc1ccc2nc(SCC(=O)NC3CCCC3)c(C)cc2c1`, the IC50 was 4.48 µM.
For `COc1cc2c3nnc(-c4ccc(F)cc4)c-3cn(Cc3ccccc3)c2cc1OC`, the IC50 was “inactive”.
For `COc1ccc(Br)cc1-c1nc2c(c(=O)[nH]c(=O)n2Cc2ccccc2)n1C`, the IC50 was “inactive”.
Work on `O=C(c1ccccc1)N1N=C(c2ccccc2O)CC1c1ccccc1` (stereo not given) yielded an IC50 of 2.32 µM.
With `CCN(CC)C(=O)Cn1c(C)c(/C=C/c2cc[n+](C)cc2)c2ccccc21` the IC50 was 4.55 µM.
`CSc1ccc(CCNC(=O)c2cc(-c3ccccc3)c(N3CCOCC3)s2)cc1` showed an IC50 of 2.74 µM.
In the case of `Cc1ccc(-n2c(SCC(=O)Nc3cccc(S(=O)(=O)NC4=NCCCCC4)c3)nc3ccccc3c2=O)cc1`, the IC50 is reported as “inactive”.
`c1ccc(N(c2ccccc2)c2nc(N3CCCC3)nc(-n3ccnc3)n2)cc1` showed an IC50 of 1.14 µM.
`CCOC(=O)c1sc(NC(=S)NC(=O)c2cccc(OC)c2)nc1C` gave an IC50 of 8.54 µM.
In the case of `C=CCn1c(SCC(=O)Nc2sccc2C#N)nc2sc(C)c(C)c2c1=O`, the IC50 is reported as > 40 µM (inactive).
For `CCOc1ccc(-c2nnc3ccc(SCC(=O)Nc4nc5ccc(C)cc5s4)nn23)cc1`, the IC50 was 7.12 µM.
For `CCOC(=O)c1c(C2CC2)csc1NC(=O)COC(=O)c1cnc(Cl)c(Cl)c1`, the IC50 was “inactive”.
For `N#Cc1c(N)nc(N2CCCC2)c(C#N)c1-c1ccc(Cl)cc1`, the IC50 was 4.99 µM.
`COc1ccccc1NC(=O)c1sc2ncn(Cc3cccc(C)c3)c(=O)c2c1C` showed an IC50 of 0.38 µM.
For `O=c1oc2ccccc2c(NC(c2ccccc2)c2ccccc2)c1[N+](=O)[O-]`, the IC50 was > 40 µM (inactive).
In the case of `CCOc1ccc(CCNC(=O)c2cc(-c3ccccc3)c(N3CCOCC3)s2)cc1`, the IC50 is reported as 4.5 µM.
Compound `COc1ccc(-c2nc3c(c(=O)c4ccccc4n3C)c(=O)n2Cc2ccccc2)cc1` has an IC50 of 9.23 µM.
In the case of `O=S(=O)(Cc1cc(NCc2ccccc2)nc(-c2ccncc2)n1)c1ccccc1`, the IC50 is reported as > 40 µM (inactive).
Work on `CCc1ccc(-c2nc(NC(=O)c3ccc(OCC(=O)Nc4ccc(F)cc4)c(OC)c3)sc2C)cc1` yielded an IC50 of 9.3 µM.
`CCCCN1C(=O)/C(=C/C=C2\Oc3ccccc3N2CC)SC1=S` was tested, and the IC50 was 4.41 µM.
In the case of `Fc1ccc2nc(Nc3nc4c(F)cc(F)cc4s3)sc2c1`, the IC50 is reported as 7.05 µM.
In the case of `CCN(CC)C(=O)CSc1nc2cc3c(cc2c(=O)n1Cc1ccc(OC)cc1)OCO3`, the IC50 is reported as > 40 µM (inactive).
With `CCN1C(=O)CSC1=NC12CC3CC(CC(C3)C1)C2` the IC50 was > 40 µM (inactive).
Work on `COc1cc(OC)cc(-n2c3nc4ccccc4nc3c3c(=O)n(CC4CCCO4)cnc32)c1` (stereo not given) yielded an IC50 of 4.12 µM.
For `CC(C)CC[n+]1ccccc1/C=C/c1ccc(N(C)C)cc1`, the IC50 was “inactive”.
For `CCCCc1nc2sc3c(SCCN(C)C)ncnc3c2c2c1CCC2`, the IC50 was 7.04 µM.
Compound `O=C(CSc1nc2ccccc2nc1N1CCCCC1)N1CCN(S(=O)(=O)c2cc(Cl)ccc2Cl)CC1` has an IC50 of 4.85 µM.
`Cc1cc(NC(=O)c2cccs2)cc(-c2nc3ncccc3o2)c1O` was tested, and the IC50 was “inactive”.
`Cc1cc(C)c2cc(C#N)c(SCC(=O)Nc3cc(C)on3)nc2c1` was tested, and the IC50 was 7.32 µM.
`CC(C)Nc1nc(-c2cccnc2)nc(-c2ccc(Cl)cc2)c1C#N` was tested, and the IC50 was > 40 µM (inactive).
Compound `Cc1cc(C)c2nc(SCC(=O)N(C)C3CCS(=O)(=O)C3)cc(C)c2c1` (stereo not given) has an IC50 of 6.34 µM.
For `CCOC(=O)c1c(NC(=O)COC(=O)CCOc2ccccc2C)sc(C(=O)NC)c1C`, the IC50 was 0.831 µM.
In the case of `Nc1cccc(N2C(=O)c3cccc4c(N)ccc(c34)C2=O)c1`, the IC50 is reported as “inactive”.
Compound `CCOC(=O)Nc1ccc2c(COC(=O)CNS(=O)(=O)c3ccc(NC(C)=O)cc3)cc(=O)oc2c1` has an IC50 of 0.548 µM.
For `Cc1cc(-c2ccccc2)nc2oc3c(c12)NC(=O)CN(c1ccccc1)C3=O`, the IC50 was 0.378 µM.
`Cc1ccc(N(Cc2cc3cc(C)ccc3[nH]c2=O)C(=O)c2cccs2)cc1` showed an IC50 of 5.54 µM.
`COc1ccc(-c2cc(C3CC3)nc(SCC(=O)c3cccs3)c2C#N)cc1` gave an IC50 of 6.69 µM.
`N#CC1=C(SCC(N)=O)NC2=C(C(=O)c3ccccc32)C1c1ccc(Cl)cc1` (stereo not given) was tested, and the IC50 was 7.01 µM.
For `Cn1c(=O)c(NCCc2ccccc2)c2c3c(cccc31)C(=O)c1ccccc1-2`, the IC50 was “inactive”.
In the case of `CSc1nnc(N2C(=O)C(O)=C(C(=O)c3ccco3)C2c2cccc(Cl)c2)s1` (stereo not given), the IC50 is reported as “inactive”.
Compound `COc1cc(OC)c(N(C)S(=O)(=O)c2cccc(C(=O)OCc3c(C)noc3C)c2)cc1Cl` has an IC50 of 5.12 µM.
`Cc1nn(-c2ccc(Cl)c(Cl)c2)c(=O)c2ccccc12` was tested, and the IC50 was 5.16 µM.
With `CC(C)n1cc(/C=C/c2cc[n+](C)cc2)c2ccccc21` the IC50 was “inactive”.
Compound `COCCN(Cc1cc2cc(C)ccc2n2nnnc12)C(=S)Nc1ccccc1C` has an IC50 of 2.73 µM.
For `COc1ccccc1CNC(=O)COC(=O)c1cccnc1SCC(=O)NCc1ccccc1OC`, the IC50 was 5.05 µM.
`COc1ccc(C(=O)Nc2nnc(Cc3ccccc3)s2)c(OC)c1` was tested, and the IC50 was “inactive”.
For `Cc1ccc(-c2nc(NC(=O)CSc3cc(C)c4ccccc4n3)ns2)cc1`, the IC50 was 1.91 µM.
`COc1cccc(Nc2nc(-c3ccccc3O)nc3ccccc23)c1` showed an IC50 of 9.08 µM.
`COc1ccc(-c2cc(C(=O)Nc3cccnc3Cl)no2)cc1OC` showed an IC50 of 1.92 µM.
Work on `O=C(Cc1ccc(Cl)cc1)c1c[nH]c(C(=O)NCc2cccnc2)c1` yielded an IC50 of 2.51 µM.
With `Cc1ccc(-c2nc3c(c(=O)c4ccccc4n3C)c(=O)n2-c2ccc(F)cc2)cc1` the IC50 was > 40 µM (inactive).
With `CC1CCN(Cc2cc(=O)oc3ccc(C(C)C)cc23)CC1` the IC50 was 9.88 µM.
In the case of `CCOC(=O)C1CCCN(c2ccc([N+](=O)[O-])c3nonc23)C1` (stereo not given), the IC50 is reported as > 40 µM (inactive).
With `Fc1cccc(CSc2ncnc3c2oc2ccccc23)c1` the IC50 was 2.38 µM.
In the case of `COC(=O)Cn1cc(/C=C/c2cc[n+](C)cc2)c2ccccc21`, the IC50 is reported as “inactive”.
For `Cc1nn(C)c(C)c1N1C(=O)c2cccc3c(N)ccc(c23)C1=O`, the IC50 was 1.13 µM.
`COc1ccc(-c2nc3c4ccccc4ccn3c2C=O)cc1` was tested, and the IC50 was “inactive”.
For `CCN1/C(=C/c2ccc3cccc(C)c3[n+]2CC)Sc2ccccc21`, the IC50 was 2.04 µM.
With `CCCCCCCn1c(=O)c(C(=O)Nc2cnccn2)c(O)c2ccccc21` the IC50 was “inactive”.
`CN1CCS/C1=C\C=C1/SC(=S)N(CC(=O)O)C1=O` was tested, and the IC50 was “inactive”.
For `CC(=O)Nc1ccc(O)c(-c2nc3ccccc3s2)c1`, the IC50 was “inactive”.
In the case of `COc1ccc(CCn2c(-c3ccc(OC)cc3)nc3c(c(=O)c4ccccc4n3C)c2=O)cc1`, the IC50 is reported as 7.79 µM.
Compound `Nc1ccc2nc3c(=O)n(CCc4ccccc4)c(=O)[nH]c3nc2c1` has an IC50 of 2.89 µM.
For `CCOc1ccccc1CNC(=O)C1CCN(c2nnc(C)c3c(C)n(-c4ccc(C)cc4)nc23)CC1`, the IC50 was > 40 µM (inactive).
`O=c1c2ccccc2nc2sc(Nc3ccc(F)cc3)nn12` was tested, and the IC50 was “inactive”.
Compound `Cc1cc(C)c(NC(=O)CSc2nc3ncc(Br)cc3[nH]2)c(Cl)c1` has an IC50 of 6.22 µM.
`CC(C)CCSc1nc(N)c(C#N)cc1C#N` showed an IC50 of 2.17 µM.
In the case of `CC(C)(C)c1nc(SCC(=O)Nc2ccc3c(c2)OCCO3)c2ccccc2n1`, the IC50 is reported as 0.88 µM.
Work on `Cc1cc(=O)oc2cc(OCC3CC(c4ccc(Br)cc4)=NO3)ccc12` (stereo not given) yielded an IC50 of 1.04 µM.
For `CCCCOC(=O)c1cc(C)nc2ccc(Br)cc12`, the IC50 was “inactive”.
With `Cc1cccc(NC(=O)CSc2ncnc3c2oc2ccccc23)c1` the IC50 was 0.615 µM.
`Cc1ccc(NC(=S)Nc2nc(CC(=O)Nc3ccccc3)cs2)cc1` was tested, and the IC50 was 3.84 µM.
Compound `COc1ccc(-n2c(SCC(=O)NC3CCCCC3)nc3ccsc3c2=O)cc1` has an IC50 of 5.08 µM.
`C=CCOc1ccc(C2C(C(=O)c3cccs3)=C(O)C(=O)N2c2nnc(C)s2)cc1` (stereo not given) showed an IC50 of 3.99 µM.
`COc1cc(OC)cc(-c2c(Sc3ccccc3)c3cc(-c4ccc(SC)cc4)ccc3n2C)c1` showed an IC50 of 5.97 µM.
For `C=CCN1C(=O)/C(=C2/Sc3ccc(OC)cc3N2C)SC1=NCc1ccccc1`, the IC50 was 6.32 µM.
In the case of `CCn1c(=NC(=O)c2ccc(N3C(=O)CCC3=O)cc2)sc2c(OC)ccc(OC)c21`, the IC50 is reported as 2.63 µM.
For `COc1ccc2c(C)cc(SCC(=O)NC3CCCCC3)nc2c1`, the IC50 was > 40 µM (inactive).
With `COc1ccc(C(=O)c2c[nH]c(C(=O)NCc3cccs3)c2)cc1` the IC50 was > 40 µM (inactive).
`Cc1cc(C)c2cc(C#N)c(SCC(=O)NCC3CCCO3)nc2c1` (stereo not given) gave an IC50 of 3.95 µM.
`COc1ccccc1N/C(N)=N/c1nc(CSc2ccc(C)cc2)cc(=O)[nH]1` showed an IC50 of 4.19 µM.
`CN1C(=O)N(C)c2ccc(Br)c3cccc1c23` was tested, and the IC50 was > 40 µM (inactive).
Compound `COc1ccccc1NC(=O)c1cnc(SCC(=O)NCCc2ccccc2)n(C)c1=O` has an IC50 of 4.36 µM.
For `CCn1cc(C(=O)NCCc2ccccc2C)c(=O)c2ccc(C)nc21`, the IC50 was 1.16 µM.
With `C=CCSc1nc(N)c(C#N)c(-c2ccccc2)c1C#N` the IC50 was “inactive”.
`C#CCn1c(=NC(=O)c2ccc(Br)s2)sc2cccc(OC)c21` showed an IC50 of 2.4 µM.
With `O=C(O)c1ccccc1C(c1ccccc1)c1ccccc1O` (stereo not given) the IC50 was “inactive”.
Compound `CC1(Cc2ccccc2OC(F)(F)F)C(=O)Nc2ccc(-c3ccsc3)cc21` (stereo not given) has an IC50 of 1.7 µM.
With `O=c1oc2c3c4c(cc2c(C(F)(F)F)c1CCN1CCOCC1)CCCN4CCC3` the IC50 was “inactive”.
With `O=C(CCS(=O)(=O)c1ccccc1)Nc1ccccc1-c1nc2ccccc2s1` the IC50 was 0.518 µM.
Work on `COc1ccccc1-c1nc(SCC(=O)N(C)c2ccccc2)c2c(=O)n(C)c(=O)n(C)c2n1` yielded an IC50 of 3.13 µM.
Compound `CCOc1ccccc1-c1nc(-c2ccc(NC(=O)Cc3ccc(OC)cc3)cc2)no1` has an IC50 of 6.52 µM.
`Cc1cc(C)cc(OCc2nc3ncc(Br)cc3[nH]2)c1` showed an IC50 of 2.43 µM.
`CN(C)c1ccc(/C=C2\NC(=S)N(Cc3ccccc3)C2=O)cc1` was tested, and the IC50 was > 40 µM (inactive).
In the case of `COCCn1c(=NC(=O)c2ccc3c(c2)OCCO3)sc2cc(S(N)(=O)=O)ccc21`, the IC50 is reported as 4.94 µM.
`CCN1/C(=C/C=C/c2oc3ccc(-c4ccccc4)cc3[n+]2CC)Oc2ccc(-c3ccccc3)cc21` was tested, and the IC50 was > 40 µM (inactive).
Work on `O=C(CSc1ncnc2c1oc1ccccc12)NCc1ccc(F)cc1` yielded an IC50 of 1.26 µM.
`N#Cc1cc(C#N)c(N2CCN(c3cccc(Cl)n3)CC2)nc1N` gave an IC50 of 5.79 µM.
`O=C(NCc1ccccn1)c1ccc(Cn2c(=S)[nH]c3ccc(Br)cc3c2=O)cc1` showed an IC50 of 2.63 µM.
`CCOC(=O)c1c(-c2ccccc2)csc1NC(=O)c1cc(S(=O)(=O)N2CCOCC2)ccc1C` showed an IC50 of 4.51 µM.
In the case of `Cc1cc(N2CCCC2)ccc1/C=C1\NC(=S)N(C)C1=O`, the IC50 is reported as “inactive”.
With `CCN(CC)c1ccc(/C=C(\C#N)C(=O)c2ccc(Br)cc2)cc1` the IC50 was “inactive”.
With `COc1cccc(OC)c1-c1nn2c(-c3cc(-c4ccccc4)n[nH]3)nnc2s1` the IC50 was “inactive”.
